In patent US20120283334A1, “Treatment of Viral Infections” (Biocopea, Ltd., priority 2009, published 2012):
Where two headings read alike, the source gives them in different places.

Assays:
[1] = system: TNF-α; assay: TNF-α levels in PBMC under Con A stimulation (ELISA); format: cell-based, human; conditions: for Percentage TNF-α levels compared to 100% untreated cells under Con A stimulation: PBMC; for concentration of TNF-α in Con A stimulated cells: text summary of Table 3, concentration not stated
Procedure: (§1) 1) Isolation, Culture and Treatment of Peripheral Blood Mononuclear Cells (PBMC) Blood was collected in 6 ml vacutainers (green cap). Blood was processed within 2 h of collection. Materials used: Non-coagulated blood; FCS; RPMI-1640 media supplemented with L-Gln and P/S; PBS; sterile tips and pipettes; Sterile 15 ml Falcon; Sterile V-bottom 96-well plates with lids; Neubauer chamber; Trypan Blue solution; 70% IPA solution; Accuspin-Histopaque tubes (Sigma, A7054) Procedure: • 1. Dilute samples 1:1 in sterile PBS; • 2. Add 30 ml of diluted blood into an Accuspin-Histopaque tube (Sigma, A7054); • 3. Centrifuge at 800 rcf 15min at room temperature (RT); • 4. After centrifugation, the red blood cells will remain at the bottom below the frit. The monocytes (PBMC) will be present on a layer above the frit, with the plasma on top; • 5. Collect the PBMC layer with a pipette into a fresh 15 ml Falcon tube and top up to 15 ml of PBS; • 6. Centrifuge at 250 rcf 10 min at RT; • 7. Discard the supernatant, flick the pellet and add another 10 ml of PBS; • 8. Centrifuge at 250 rcf 10 min at RT; • 9. Repeat steps 7 and 8; • 10. […] Count cells and make a 4×10^6 cell/ml suspension in complete medium. Add 100 μl of cell suspension per well in a V-bottom 96-well plate. Then add 50 μl of stimulant or vehicle in complete media, and 50 μl of drug or vehicle in complete media. Incubate the cells for 24 h at 37° C. 5% CO2; • 12. After incubation, take 60 μl of cell supernatant to measure IFNγ and TNFα by ELISA (OptEIA human IFNγ, cat No. 555142 and human TNF, Cat No. 555212) following manufacturer's instructions (BD Biosciences); The two mitogens that the inventors used to stimulate lymphocytes, and therefore assess immune function, were lipopolysaccharide (LPS) and Concanavalin A (Con A). LPS acts on B cells but not T cells, whereas Con A acts on T cells but not B cells. The effects of two embodiments of the compound represented by formula I, i.e. dobutamine (referred to in the tables as BC1021) and ritodrine (BC1023), on the levels of IFN-γ and TNF-α were investigated in LPS and Con A stimulated assays. Peripheral Blood Mononuclear Cells (PMBC) were independently administered with each mitogen, LPS or Con A, and then treated with either dobutamine or ritodrine. Control experiments were conducted in which no LPS or Con A was added, such that any effect on the levels of IFN-γ and TNF-α could be directly attributed to the presence of the test compound, dobutamine or ritodrine.

[2] = system: IFN-γ; assay: IFN-γ levels in PBMC under Con A stimulation (ELISA); format: cell-based, human; conditions: for Percentage IFN-γ levels compared to 100% untreated cells under Con A stimulation: PBMC; for concentration of IFN-γ in Con A stimulated cells: text summary of Table 4, concentration not stated
Procedure: as §1

[3] = system: Con A stimulated cells; assay: Percentage cell survival of Con A stimulated cells; conditions: for Percentage cell survival compared to 100% untreated cells under Con A stimulation: compound only (no Con A)
[4] = system: Con A stimulated cells; conditions: for Percentage cell survival compared to 100% untreated cells under Con A stimulation: human
[5] = compound only (no Con A), 10 μM
[6] = compound only (no Con A), 100 μM

For CC(CCc1ccc(O)cc1)NCCc1ccc(O)c(O)c1 (stereo not shown) [BC1021, dobutamine], the “Percentage TNF-α levels compared to 100% untreated cells under Con A stimulation” value ([1]; + Con A, compound 1 μM, 24 h) was 103.05%, the “Percentage TNF-α levels compared to 100% untreated cells under Con A stimulation” value ([1]; + Con A, compound 10 μM, 24 h) was 102.36% and the “Percentage TNF-α levels compared to 100% untreated cells under Con A stimulation” value ([1]; + Con A, compound 100 μM, 24 h) was −33.95%. For the same molecule, the “Percentage TNF-α levels compared to 100% untreated cells under Con A stimulation” value ([1]; compound only (no Con A), 1 μM) was −35.44%, the “Percentage TNF-α levels compared to 100% untreated cells under Con A stimulation” value [1, 5] was −33.21% and the “Percentage TNF-α levels compared to 100% untreated cells under Con A stimulation” value [1, 6] was −42.84%. The “concentration of TNF-α in Con A stimulated cells” value [1] was “decreased”, the “Percentage IFN-γ levels compared to 100% untreated cells under Con A stimulation” value ([2]; + Con A, compound 1 μM, 24 h) was 63.40% and the “Percentage IFN-γ levels compared to 100% untreated cells under Con A stimulation” value ([2]; + Con A, compound 10 μM, 24 h) was 32.77%. For the same molecule, the “Percentage IFN-γ levels compared to 100% untreated cells under Con A stimulation” value ([2]; + Con A, compound 100 μM, 24 h) was −1.80%, the “Percentage IFN-γ levels compared to 100% untreated cells under Con A stimulation” value ([2]; + Con A, compound 100 μM, 24 h, listed as dobutamine) was “significant effect in decreasing” and the “Percentage IFN-γ levels compared to 100% untreated cells under Con A stimulation” value ([2]; compound only (no Con A), 1 μM) was −2.61%. The “Percentage IFN-γ levels compared to 100% untreated cells under Con A stimulation” value [2, 5] was −2.51%, the “Percentage IFN-γ levels compared to 100% untreated cells under Con A stimulation” value [2, 6] was −3.26% and the “concentration of IFN-γ in Con A stimulated cells” value [2] was “decreased”. For the same molecule, the “Percentage cell survival compared to 100% untreated cells under Con A stimulation” value ([3]; 1 μM) was 76.89%, the “Percentage cell survival compared to 100% untreated cells under Con A stimulation” value ([3]; 10 μM) was 69.80% and the “Percentage cell survival compared to 100% untreated cells under Con A stimulation” value ([3]; 100 μM) was 44.95%. The “percentage cell survival compared to the untreated controls” value ([3]; text summary of Table 5, all doses) was “higher”.
With CC(NCCc1ccc(O)cc1)C(O)c1ccc(O)cc1 (stereo not shown) [BC1023, ritodrine] the “percentage cell survival compared to the untreated controls” value [4] was “higher”, the “Percentage cell survival compared to 100% untreated cells under Con A stimulation” value ([4]; 1 μM) was 78.69% and the “Percentage cell survival compared to 100% untreated cells under Con A stimulation” value ([4]; 10 μM) was 75.25%. For the same molecule, the “Percentage cell survival compared to 100% untreated cells under Con A stimulation” value ([4]; 100 μM) was 72.56%, the “Percentage TNF-α levels compared to 100% untreated cells under Con A stimulation” value ([1]; + Con A, compound 1 μM, 24 h) was 103.92% and the “Percentage TNF-α levels compared to 100% untreated cells under Con A stimulation” value ([1]; + Con A, compound 10 μM, 24 h) was 106.20%. The “Percentage TNF-α levels compared to 100% untreated cells under Con A stimulation” value ([1]; + Con A, compound 100 μM, 24 h) was 104.93%, the “Percentage TNF-α levels compared to 100% untreated cells under Con A stimulation” value ([1]; compound only (no Con A), 1 μM) was −5.94% and the “Percentage TNF-α levels compared to 100% untreated cells under Con A stimulation” value [1, 5] was −24.69%. For the same molecule, the “Percentage TNF-α levels compared to 100% untreated cells under Con A stimulation” value [1, 6] was −14.80%, the “concentration of TNF-α in Con A stimulated cells” value [1] was “decreased” and the “Percentage IFN-γ levels compared to 100% untreated cells under Con A stimulation” value ([2]; + Con A, compound 1 μM, 24 h) was 39.93%. For the same molecule, the “Percentage IFN-γ levels compared to 100% untreated cells under Con A stimulation” value ([2]; + Con A, compound 10 μM, 24 h) was 34.25%, the “Percentage IFN-γ levels compared to 100% untreated cells under Con A stimulation” value ([2]; + Con A, compound 100 μM, 24 h) was 41.69% and the “Percentage IFN-γ levels compared to 100% untreated cells under Con A stimulation” value ([2]; compound only (no Con A), 1 μM) was −0.86%. For the same molecule, the “Percentage IFN-γ levels compared to 100% untreated cells under Con A stimulation” value [2, 5] was −1.52%, the “Percentage IFN-γ levels compared to 100% untreated cells under Con A stimulation” value [2, 6] was −1.87% and the “concentration of IFN-γ in Con A stimulated cells” value [2] was “decreased”.
